Results: PubChem BioAssay (NCI)
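A five-concentration, 48-hour dose response in 96-well plates underlies each endpoint, interpolated linearly between surrounding concentrations. TGI denotes the concentration required for complete inhibition of growth.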

What was measured:
Assay in all cases: NCI tumour cell line growth inhibition, 48 h
SW-620 colon = system: SW-620 colon
CAKI-1 renal = system: CAKI-1 renal
EKVX NSCLC = system: EKVX NSCLC
UACC-257 melanoma = system: UACC-257 melanoma
CCRF-CEM leukemia = system: CCRF-CEM leukemia
KM12 colon = system: KM12 colon
HOP-92 NSCLC = system: HOP-92 NSCLC
HOP-62 NSCLC = system: HOP-62 NSCLC
TK-10 renal = system: TK-10 renal
HS 578T breast = system: HS 578T breast

Row | SMILES | TGI (SW-620 colon) | TGI (CAKI-1 renal) | TGI (EKVX NSCLC) | TGI (UACC-257 melanoma) | TGI (CCRF-CEM leukemia) | TGI (KM12 colon) | TGI (HOP-92 NSCLC) | TGI (HOP-62 NSCLC) | TGI (TK-10 renal) | TGI (HS 578T breast)
1 | CN(C)CCNC(=O)c1cccc2c1C(=O)c1ccccc1C2=O | > 91.3 µM | > 100 µM | > 100 µM | 54.4 µM | 98.9 µM | > 100 µM | > 73.7 µM | > 31.6 µM |  | 
2 | CN(C)N1C(=O)C(=O)N(c2cccc3ccccc23)C1=O | > 10 µM | > 10 µM | > 10 µM |  | > 10 µM | > 10 µM |  | > 10 µM | > 10 µM | > 10 µM
3 | COC(=O)c1ccc(OCCn2nnc(C(=O)NN)c2C(=O)NN)cc1 |  | > 100 µM | > 100 µM | > 100 µM | > 100 µM | > 100 µM | > 100 µM | > 100 µM | > 100 µM | 
4 | CC(C)CC1c2[nH]c3ccccc3c2C[C@H]2C(=O)NC(Cc3c[nH]c4ccccc34)C(=O)N12 (some centres not stated) | 58.5 µM | 66.1 µM | 45.4 µM | 28.9 µM |  | 28.8 µM | 34.5 µM | 45.9 µM | 24.5 µM | 26.2 µM
5 | COP(=O)(OC)C(N)Cc1c[nH]c2ccccc12 (configuration not stated) | > 100 µM | > 100 µM |  | > 100 µM |  |  |  | > 100 µM | > 100 µM | > 100 µM
6 | O=C(Cn1c2ccc(Br)cc2c2nc3ccccc3nc21)NCc1ccccc1 | > 100 µM | > 100 µM |  | > 100 µM | > 100 µM | > 100 µM | 13.1 µM | > 100 µM | 49.5 µM | 92.4 µM
7 | COc1ccc(-c2cc(-c3ccc(C)cc3)n(C3OC(COC(C)=O)C(OC(C)=O)C(OC(C)=O)C3OC(C)=O)c(=S)c2C#N)cc1 (configuration not stated) | > 100 µM | > 100 µM | > 100 µM |  |  | > 100 µM | > 100 µM | > 100 µM | > 100 µM | > 100 µM
8 | CC1OC(NCCNCCNC2OC(C)C(O)C(O)C2O)C(O)C(O)C1O (configuration not stated) | > 100 µM |  | > 100 µM | > 100 µM |  | > 100 µM | > 100 µM | > 100 µM | > 100 µM | > 100 µM
9 | CC(=O)OCC1OC(n2c(C)c(C)cc(C#N)c2=S)C(OC(C)=O)C(OC(C)=O)C1OC(C)=O (configuration not stated) | > 100 µM | > 100 µM | > 100 µM | > 100 µM |  | > 100 µM | > 100 µM | > 100 µM | > 100 µM | > 100 µM
10 | COc1ccc(C2CC(c3sc(Nc4ccc(C)cc4)nc3C)=NN2)cc1 (configuration not stated) | 38.2 µM | 41.2 µM | 47.8 µM | 32.6 µM | 54.7 µM | 29.5 µM | 30.3 µM | 38.3 µM |  | 
11 | CCC(C)C(Nc1c2ccccc2nc2c(C(=O)NCCN(C)C)cccc12)C(=O)O (configuration not stated) | > 100 µM |  | 77 µM |  | > 100 µM | > 100 µM | 61.1 µM | > 100 µM | > 100 µM | 51.6 µM
12 | O=C1C=C(NCCc2ccc(O)c([N+](=O)[O-])c2)C(=O)c2[nH]cnc21 | > 100 µM |  | 72.2 µM | 38.7 µM |  | > 100 µM |  | > 100 µM | > 100 µM | > 100 µM
13 | O=C(NC(=S)Nc1ccc(Br)cc1)c1ccc2c(c1)Sc1ccccc1O2 | > 100 µM |  |  | > 100 µM | > 100 µM | > 100 µM | 74.9 µM | > 100 µM | > 100 µM | > 100 µM
14 | Nc1cc(CO)cc(Nc2c3ccccc3nc3ccccc23)c1 | 26 µM | 31.7 µM | 31.8 µM | 28.5 µM | > 100 µM | 29.8 µM |  | 28.8 µM | 30.1 µM | 67.8 µM
15 | CCOP(=O)(OCC)C(c1ccc(F)cc1)N(C(=O)NC(F)(F)F)c1ccc(F)cc1 (configuration not stated) | > 100 µM | > 100 µM | > 100 µM | > 100 µM | > 100 µM | > 100 µM |  | > 100 µM | > 100 µM | > 100 µM
16 | CC1[C@@]2(O[C@@H]3C=C4C5CCC6Cc7nc8c(nc7C[C@@]6(C)C5C[C@H](O)[C@@]4(C)[C@]13O)CC1CCc3c(cc4c5c3C(O)C[C@H]5[C@@H](C)C3(O4)OC(C)(C)CC3O)[C@]1(C)C8)O[C@@](C)(CO)C[C@@H]2O (some centres not stated) | 1.1 µM | > 3.72 µM | > 3.72 µM | > 3.72 µM | > 3.72 µM | > 3.72 µM |  | 0.263 µM |  | 
17 | O=S1(=O)OCCOS(=O)(=O)C1(F)Cc1ccccc1 | > 100 µM | > 100 µM | > 100 µM |  | > 100 µM |  | > 100 µM | > 100 µM | > 100 µM | > 100 µM
